# Assay results reported in patent US20230242530A1, “8-(AZETIDIN-1-YL)-[1,2,4]TRIAZOLO[1,5-A]PYRIDINYL COMPOUNDS, COMPOSITIONS AND METHODS OF USE THEREOF” (Genentech, Inc., priority 2016, published 2023).
# Legend:
# [1] = system: JAK1-dependent STAT6 phosphorylation downstream of IL-13 stimulation in BEAS-2B cells; experiment: JAK1 pathway assay in cell lines: IL-13 p-STAT6 BEAS-2B; type: cell-based; settings: BEAS-2B human bronchial epithelial cells, 1 hr compound, IL-13 15 min, MSD readout
# Experimental: JAK1 Pathway Assay in Cell Lines was Carried Out as Follows:
# Inhibitor potency (EC50) was determined in cell-based assays designed to measure JAK1 dependent STAT phosphorylation. As noted above, inhibition of IL-4, IL-13, and IL-9 signalling by blocking the Jak/Stat signaling pathway can alleviate asthmatic symptoms in pre-clinical lung inflammation models (Mathew et al., 2001, J Exp Med 193(9): 1087-1096; Kudlacz et. al., 2008, Eur J. Pharmacol 582(1-3): 154-161).
# In one assay approach, TF-1 human erythroleukemia cells obtained from the American Type Culture Collection (ATCC; Manassas, Va.) were used to measure JAK1-dependent STAT6 phosphorylation downstream of IL-13 stimulation. Prior to use in the assays, TF-1 cells were starved of GM-CSF overnight in OptiMEM medium (Life Technologies, Grand Island, N.Y.) supplemented with 0.5% charcoal/dextran stripped fetal bovine serum (FBS), 0.1 mM non-essential amino acids (NEAA), and 1 mM sodium pyruvate. The assays were run in 384-well plates in serum-free OptiMEM medium using 300,000 cells per well. In a second assay approach, BEAS-2B human bronchial epithelial cells obtained from ATCC were plated at 100,000 cells per well of a 96-well plate one day prior to the experiment. The BEAS-2B assay was run in complete growth medium (bronchial epithelial basal medium plus bulletkit; Lonza; Basel, Switzerland).
# Test compounds were serially diluted 1:2 in DMSO and then diluted 1:50 in medium just before use. Diluted compounds were added to the cells, for a final DMSO concentration of 0.2%, and incubated for 30 mi (for the TF-1 assay) or 1 hr (for the BEAS-2B assay) at 37 QC. Then, cells were stimulated with human recombinant cytokine at their respective EC90 concentrations, as previously determined for each individual lot. Cells were stimulated with IL-13 (R&D Systems, Minneapolis, Minn.) for 15 min at 37 °C. The TF-1 cell reactions were stopped by the direct addition of 10× lysis buffer (Cell Signaling Technologies, Danvers, Mass.), whereas the BEAS-2B cell incubations were halted by the removal of medium and addition of 1× lysis buffer. The resultant samples were frozen in the plates at −80 °C. Compound mediated inhibition of STAT6 phosphorylation was measured in the cell lysates using MesoScale Discovery (MSD) technology (Gaithersburg, Md.). EC50 values were determined as the concentration of compound required for 50% inhibition of STAT phosphorylation relative to that measured for the DMSO control.
# [2] = target: T1, isolated recombinant JAK1 kinase domain (Homo sapiens, UniProt P23458); experiment: JAK enzyme assay, JAK1 kinase domain (Caliper LabChip); type: biochemical; settings: 1.5 nM JAK1, ATP 25 μM, Morrison tight binding model
# T1 construct: isolated recombinant JAK1 and JAK2 kinase domain
# T1 sequence (P23458 875-1153 limits assumed): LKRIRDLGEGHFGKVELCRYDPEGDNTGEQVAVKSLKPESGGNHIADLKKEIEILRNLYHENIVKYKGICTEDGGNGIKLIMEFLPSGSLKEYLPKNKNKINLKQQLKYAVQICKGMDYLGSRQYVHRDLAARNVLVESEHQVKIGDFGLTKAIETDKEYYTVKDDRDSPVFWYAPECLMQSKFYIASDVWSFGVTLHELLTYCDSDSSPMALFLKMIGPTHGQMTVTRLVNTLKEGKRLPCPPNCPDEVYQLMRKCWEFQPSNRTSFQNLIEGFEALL
# Experimental: (§1) JAK Enzyme Assays were Carried Out as Follows:
# (§2) The activity of the isolated recombinant JAK1 and JAK2 kinase domain was measured by monitoring phosphorylation of a peptide derived from JAK3 (Val-Ala-Leu-Val-Asp-Gly-Tyr-Phe-Arg-Leu-Thr-Thr, fluorescently labeled on the N-terminus with 5-carboxyfluorescein) using the Caliper LabChip® technology (Caliper Life Sciences, Hopkinton, Mass.). […] Reactions were incubated at 22 °C in 384-well polypropylene microtiter plates for 30 minutes and then stopped by addition of 25 μL of an EDTA containing solution (100 mM HEPES buffer (pH 7.2), 0.015% Brij-35, 150 mM EDTA), resulting in a final EDTA concentration of 50 mM. After termination of the kinase reaction, the proportion of phosphorylated product was determined as a fraction of total peptide substrate using the Caliper LabChip® 3000 according to the manufacturer's specifications. Ki values were then determined using the Morrison tight binding model (Morrison, J. F., Biochim. Biophys. Acta. 185:269-296 (1969); William, J. W. and Morrison, J. F., Meth. Enzymol., 63:437-467 (1979)) modified for ATP-competitive inhibition [Ki=Ki,app/(1+[ATP]/Km,app)].
# [3] = target: T2, isolated recombinant JAK2 kinase domain (Homo sapiens, UniProt O60674); experiment: JAK enzyme assay, JAK2 kinase domain (Caliper LabChip); type: biochemical; settings: 0.2 nM JAK2, ATP 25 μM, Morrison tight binding model
# T2 construct: isolated recombinant JAK1 and JAK2 kinase domain
# T2 sequence (O60674 849-1124 limits assumed): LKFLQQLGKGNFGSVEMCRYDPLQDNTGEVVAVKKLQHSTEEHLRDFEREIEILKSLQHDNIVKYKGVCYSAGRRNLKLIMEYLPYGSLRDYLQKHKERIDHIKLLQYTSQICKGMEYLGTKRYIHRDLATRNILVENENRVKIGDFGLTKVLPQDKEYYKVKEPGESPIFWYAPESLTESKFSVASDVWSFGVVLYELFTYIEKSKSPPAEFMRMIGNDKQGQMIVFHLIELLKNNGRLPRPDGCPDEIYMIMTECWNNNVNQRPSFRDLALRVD
# Experimental: as §1, §2
Compound,EC50 [1] [nM],Ki [2] [nM],Ki [3] [nM]
"CN1CCN(C2CCN(C(=O)Cn3cc(Nc4nc5c(N6CC(CC#N)(c7cccc(Cl)c7)C6)cccn5n4)cn3)CC2)CC1 [Example 70, 2-[3-(3-chlorophenyl)-1-[2-[[1-[2-[4-(4-methylpiperazin-1-yl)-1-piperidyl]-2-oxo-ethyl]pyrazol-4-yl]amino]-[1,2,4]triazolo[1,5-a]pyridin-8-yl]azetidin-3-yl]acetonitrile]",10,0.2,0.3
"CCc1cnn(C2(CC#N)CN(c3cccn4nc(Nc5cnn(CC(=O)N(C)C)c5)nc34)C2)c1 [Example 143, 2-[4-[[8-[3-(cyanomethyl)-3-(4-ethylpyrazol-1-yl)azetidin-1-yl]-[1,2,4]triazolo[1,5-a]pyridin-2-yl]amino]pyrazol-1-yl]-N,N-dimethyl-acetamide]",31,0.6,1.7
"CN1CCN(C(=O)Cn2cc(Nc3nc4c(N5CC(CC#N)(n6cc(C7CC7)cn6)C5)cccn4n3)cn2)CC1 [Example 43, 2-[3-(4-cyclopropylpyrazol-1-yl)-1-[2-[[1-[2-(4-methylpiperazin-1-yl)-2-oxo-ethyl]pyrazol-4-yl]amino]-[1,2,4]triazolo[1,5-a]pyridin-8-yl]azetidin-3-yl]acetonitrile]",48,0.6,4
"CN1CCN(C(=O)Cn2cc(Nc3nc4c(N5CC(CC#N)(c6ccc(F)c(Cl)c6)C5)cccn4n3)cn2)CC1 [Example 83, 2-[3-(3-chloro-4-fluoro-phenyl)-1-[2-[[1-[2-(4-methylpiperazin-1-yl)-2-oxo-ethyl]pyrazol-4-yl]amino]-[1,2,4]triazolo[1,5-a]pyridin-8-yl]azetidin-3-yl]acetonitrile]",14,0.2,0.2
"CCc1cnn(C2(CC#N)CN(c3cccn4nc(Nc5ccc6c(c5)CCN(C5CCOCC5)C6)nc34)C2)c1 [Example 57, 2-[3-(4-ethylpyrazol-1-yl)-1-[2-[(2-tetrahydropyran-4-yl-3,4-dihydro-1H-isoquinolin-6-yl)amino]-[1,2,4]triazolo[1,5-a]pyridin-8-yl]azetidin-3-yl]acetonitrile]",12,0.3,1.3
"CCc1cnn(C2(CC#N)CN(c3cccn4nc(Nc5ccc(C(=O)NCCN6CCOCC6)cc5)nc34)C2)c1 [Example 66, 4-[[8-[3-(cyanomethyl)-3-(4-ethylpyrazol-1-yl)azetidin-1-yl]-[1,2,4]triazolo[1,5-a]pyridin-2-yl]amino]-N-(2-morpholinoethyl)benzamide]",31,0.3,0.5
"CCc1cnn(C2(CC#N)CN(c3cccn4nc(Nc5cnn(CC(=O)N6CCC(N(C)CC(C)(C)C#N)CC6)c5)nc34)C2)c1 [Example 52, 3-[[1-[2-[4-[[8-[3-(cyanomethyl)-3-(4-ethylpyrazol-1-yl)azetidin-1-yl]-[1,2,4]triazolo[1,5-a]pyridin-2-yl]amino]pyrazol-1-yl]acetyl]-4-piperidyl]-methyl-amino]-2,2-dimethyl-propanenitrile]",13,0.2,0.5
CN1CCN(C(=O)Cn2cc(Nc3nc4c(N5CC(CC#N)(N6CCOCC6)C5)cccn4n3)cn2)CC1 [Example 8],12,0.3,1.5
"CC(C)c1cnn(C2(CC#N)CN(c3cccn4nc(Nc5cn[nH]c5)nc34)C2)c1 [Example 141, 2-[3-(4-isopropylpyrazol-1-yl)-1-[2-(1H-pyrazol-4-ylamino)-[1,2,4]triazolo[1,5-a]pyridin-8-yl]azetidin-3-yl]acetonitrile]",9,0.1,0.1
"CC(C)(C#N)CCN1CCN(C(=O)Cn2cc(Nc3nc4c(N5CC(CC#N)(n6cc(C(F)(F)F)cn6)C5)cccn4n3)cn2)CC1 [Example 107, 4-[4-[2-[4-[[8-[3-(cyanomethyl)-3-[4-(trifluoromethyl)pyrazol-1-yl]azetidin-1-yl]-[1,2,4]triazolo[1,5-a]pyridin-2-yl]amino]pyrazol-1-yl]acetyl]piperazin-1-yl]-2,2-dimethyl-butanenitrile]",44,0.4,1.1
"Cn1cc(Nc2nc3c(N4CC(CC#N)(n5cc(OC(F)F)cn5)C4)cccn3n2)cn1 [Example 145, 2-[3-[4-(difluoromethoxy)pyrazol-1-yl]-1-[2-[(l-methylpyrazol-4-yl)amino]-[1,2,4]triazolo[1,5-a]pyridin-8-yl]azetidin-3-yl]acetonitrile]",6,0.2,0.3
"N#CCC1(n2cc(Br)cn2)CN(c2cccn3nc(Nc4cn[nH]c4)nc23)C1 [Example 128, 2-[3-(4-bromopyrazol-1-yl)-1-[2-(1H-pyrazol-4-ylamino)-[1,2,4]triazolo[1,5-a]pyridin-8-yl]azetidin-3-yl]acetonitrile]",8,0.2,0.2
"CC(C)c1cnn(C2(CC#N)CN(c3cccn4nc(Nc5cnn(CC(=O)N6CCN(C)CC6)c5)nc34)C2)c1 [Example 56, formic acid;2-[3-(4-isopropyipyrazol-1-yl)-1-[2-[[1-[2-(4-methylpiperazin-1-yl)-2-oxo-ethyl]pyrazol-4-yl]amino]-[1,2,4]triazolo[1,5-a]pyridin-8-yl]azetidin-3-yl]acetonitrile]",319,2.3,10.5
COCCN1CCN(C(=O)Cn2cc(Nc3nc4c(N5CC(CC#N)(n6cc(C(F)(F)F)cn6)C5)cccn4n3)cn2)CC1 [Example 94],54,0.3,1
Cc1cnn(C2(CC#N)CN(c3cccn4nc(Nc5cnn(CC(=O)N6CCN(C)CC6)c5)nc34)C2)c1 [Example 10],18,0.4,1.5
"CN1CCN(C(=O)Cn2cc(Nc3nc4c(N5CC(CC#N)(N6CCN(C)CC6)C5)cccn4n3)cn2)CC1 [Example 9, 2-[3-(4-methylpiperazin-1-yl)-1-[2-[[1-[2-(4-methylpiperazin-1-yl)-2-oxo-ethyl]pyrazol-4-yl]amino]-[1,2,4]triazolo[1,5-a]pyridin-8-yl]azetidin-3-yl]acetonitrile]",34,0.6,2.5
"CCc1cnn(C2(CC#N)CN(c3cccn4nc(Nc5cnn(CC(=O)N6CCN(CCNC(=O)CC78CC9CC(CC(C9)C7)C8)CC6)c5)nc34)C2)c1 [Example 58, 2-(l-adamantyl)-N-[2-[4-[2-[4-[[8-[3-(cyanomethyl)-3-(4-ethylpyrazol-1-yl)azetidin-1-yl]-[1,2,4]triazolo[1,5-a]pyridin-2-yl]amino]pyrazol-1-yl]acetyl]piperazin-1-yl]ethyl]acetamide]",13,0.4,0.3
"Cc1ccccc1-c1cnn(C2(CC#N)CN(c3cccn4nc(Nc5cnn(CC(=O)N6CCN(C7COC7)CC6)c5)nc34)C2)c1 [Example 122, formic acid;2-[3-[4-(o-tolyl)pyrazol-1-yl]-1-[2-[[1-[2-[4-(oxetan-3-yl)piperazin-1-yl]-2-oxo-ethyl]pyrazol-4-yl]amino]-[1,2,4]triazolo[1,5-a]pyridin-8-yl]azetidin-3-yl]acetonitrile]",43,0.5,3.7
CN1CCN(C(=O)Cn2cc(Nc3nc4c(N5CC(CC#N)(n6cccn6)C5)cccn4n3)cn2)CC1 [Example 18],21,0.7,1.5
